Here are results for eight compounds from patent US20240246964A1 (Arbutus Biopharma Corporation, priority 2021, published 2024).

For this assay, the target named is human PD-L1 (Homo sapiens (Human), UniProt Q9NZQ7). Put plainly: T cell activation luciferase reporter cell culture system (T Cell Activation Assay). The class given is cell-based. The following applies: luciferase reporter assay; PD-L1 aAPC/CHO-K1 cells with PD-1 effector Jurkat T cells. On the technique in general: Reporter assays use an easily measured gene product as a stand-in for the process of interest.
Chain of human PD-L1 (Q9NZQ7 19-290): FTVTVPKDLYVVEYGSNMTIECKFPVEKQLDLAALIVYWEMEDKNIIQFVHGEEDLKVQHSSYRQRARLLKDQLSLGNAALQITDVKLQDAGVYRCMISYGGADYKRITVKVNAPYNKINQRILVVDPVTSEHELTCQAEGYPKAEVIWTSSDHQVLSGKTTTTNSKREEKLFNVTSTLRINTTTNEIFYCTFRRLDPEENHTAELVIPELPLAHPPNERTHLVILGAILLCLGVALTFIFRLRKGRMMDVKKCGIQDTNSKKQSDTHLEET

A value given as a limit tells only on which side of the number the result lay.

In the case of `COCCC(=O)N1CCC(NCc2ccc(-c3cccc(-c4ccnc(-c5ccc(CNC[C@H](C)O)c(OC)c5)c4Cl)c3Cl)nc2OC)CC1` [Example 632, (S)-1-(4-(((6-(2-Chloro-3-(3-chloro-2-(4-(((2-hydroxypropyl)amino)methyl)-3-methoxyphenyl)pyridin-4-yl)phenyl)-2-methoxypyridin-3-yl)methyl)amino)piperidin-1-yl)-3-methoxypropan-1-one], the response was half-maximal at 0.0412 µM (EC50).

Compound `COc1nc(-c2ccnc(-c3cccc4c3CC[C@@H]4Nc3nc(OC)c(CNC4CCN(C(C)=O)CC4)cc3C(F)(F)F)c2Cl)ccc1CNC[C@@H]1CCC(=O)N1` [Example 633, (S)-5-((((2′-((S)-1-((5-(((1-Acetylpiperidin-4-yl)amino)methyl)-6-methoxy-3-(trifluoromethyl)pyridin-2-yl)amino)-2,3-dihydro-1H-inden-4-yl)-3′-chloro-6-methoxy-[2,4′-bipyridin]-5-yl)methyl)amino)methyl)pyrrolidin-2-one] came in with a half-maximal effective concentration (EC50) of 0.121 µM.

On to `COc1nc(-c2ccnc(-c3cccc4c3CC[C@@H]4Nc3nc(OC)c(CNC4CCOCC4)cc3C(F)(F)F)c2Cl)ccc1CNC[C@@H]1CCC(=O)N1` [Example 634, (S)-5-((((3′-Chloro-6-methoxy-2′-((S)-1-((6-methoxy-5-(((tetrahydro-2H-pyran-4-yl)amino)methyl)-3-(trifluoromethyl)pyridin-2-yl)amino)-2,3-dihydro-1H-inden-4-yl)-[2,4′-bipyridin]-5-yl)methyl)amino)methyl)pyrrolidin-2-one], for which it took 0.11 µM to reach a half-maximal effect (EC50).

Regarding `COc1cc(-c2nccc(-c3cccc(-c4ccc(CN5CC6(C5)CN(C(C)=O)C6)c(OC)n4)c3C#N)c2Cl)ccc1CN1CC2(C1)CN(C(C)=O)C2` [Example 636, 2-(2-(4-((6-Acetyl-2,6-diazaspiro[3.3]heptan-2-yl)methyl)-3-methoxyphenyl)-3-chloropyridin-4-yl)-6-(5-((6-acetyl-2,6-diazaspiro[3.3]heptan-2-yl)methyl)-6-methoxypyridin-2-yl)benzonitrile], it took 1.27 µM to reach a half-maximal effect (EC50).

`COc1cc(-c2nccc(-c3cccc(NC(=O)c4ccc(CNC[C@@H]5CCC(=O)N5)cn4)c3C)c2Cl)ccc1CNC[C@@H]1CCC(=O)N1` [Example 647, N-(3-(3-Chloro-2-(3-methoxy-4-(((((S)-5-oxopyrrolidin-2-yl)methyl)amino)methyl)phenyl)pyridin-4-yl)-2-methylphenyl)-5-(((((S)-5-oxopyrrolidin-2-yl)methyl)amino)methyl)picolinamide] returned an EC50 of 0.0653 µM.

For the compound `COc1cc(-c2nccc(-c3cccc(NC(=O)c4ccc(CN5CC6(C5)CN(C(C)=O)C6)cn4)c3C)c2Cl)ccc1CN1CC2(C1)CN(C(C)=O)C2` [Example 649, 5-((6-Acetyl-2,6-diazaspiro[3.3]heptan-2-yl)methyl)-N-(3-(2-(4-((6-acetyl-2,6-diazaspiro[3.3]heptan-2-yl)methyl)-3-methoxyphenyl)-3-chloropyridin-4-yl)-2-methylphenyl)picolinamide], the EC50 is ≥ 10 µM.

With `COc1cc(-c2nccc(-c3cccc(-c4ccc(CN5CC6(CNC(=O)C6)C5)c(OC)n4)c3C#N)c2Cl)ccc1CN1CC2(CNC(=O)C2)C1` [Example 653, 2-(3-Chloro-2-(3-methoxy-4-((7-oxo-2,6-diazaspiro[3.4]octan-2-yl)methyl)phenyl)pyridin-4-yl)-6-(6-methoxy-5-((7-oxo-2,6-diazaspiro[3.4]octan-2-yl)methyl)pyridin-2-yl)benzonitrile], the midpoint of the response, the EC50, lay at 0.208 µM.

`COc1nc(-c2cccc(-c3ccnc(-c4cc(OC)c5nc(CNCCO)nn5c4)c3Cl)c2Cl)ccc1CNC1CCN(C(C)=O)CC1` [Example 654, 1-(4-(((6-(2-Chloro-3-(3-chloro-2-(2-(((2-hydroxyethyl)amino)methyl)-8-methoxy-[1,2,4]triazolo[1,5-a]pyridin-6-yl)pyridin-4-yl)phenyl)-2-methoxypyridin-3-yl)methyl)amino)piperidin-1-yl)ethan-1-one] gave a concentration for a half-maximal effect (EC50) of 0.0828 µM.

The term EC50 denotes the concentration at which the effect is half-maximal. Low values mean a more potent agent, high ones a less potent agent.
